According to patent publication US12590057B2, “Crystalline complexes” (Theracryf PLC, priority 2020, dated 2026):
Several values for one entry are separate records, joined by “and”; a condition that tells them apart may be missing. Equal entries are not always repeated.

How the values were obtained:
Format in all cases: physicochemical
[1] = Compaction testing (Heckel analysis); settings: for True Density: Helium Pycnometry; for Loss on Drying - end: end of compression testing; for Loss on Drying - end / Loss on Drying - start: 105° C.; for Yield pressure slow: punch speed 0.1 mm/s; for Yield pressure fast: punch speed 300 mm/s; for Loss on Drying - start: start of compression testing
From the text: Samples of Form 1 and Form 3 were subjected to Heckel analysis to determine the yield pressure of the material upon compression under controlled conditions. A known weight of material was compressed within a 10 mm diameter die with flat faced punches moving at a set speed. The die was lubricated with magnesium stearate in acetone. The force on the punch was accurately measured at frequent intervals whilst the displacement of the punches was used to calculate the volume of the powder. The yield pressure was calculated at slow (0.1 mm/s) and fast (300 mm/s) punch speeds to assess the time dependant component to deformation of the material. The true density of the material was determined by Helium Pycnometry (Micromeritics AccuPyc II 1340) using a purge pressure and run fill pressure of 19.5 psig and an equilibration rate of 0.02 psig. Testing was performed in duplicate. Temperature and humidity were monitored at intervals during the testing.
The data were analysed by the Compaction Analysis software programme to generate values for yield pressure (Py) using the Heckel equation: ln(1/1−D)=kP+A where D=the relative density of the compact; P=Pressure applied; and K=Gradient of the line in the linear region [Heckel, Trans. Metall. Soc. AIME 221 (1961)1001-1008].
Strain Rate Sensitivity (SRS) can be calculated to determine whether the deformation characteristics of the material change with the rate of applied force. The yield pressure at high speed compression is compared to that at slow speed using the following equation [Roberts and Roe, Chem. Eng. Sci. 42(1987) p. 903]. % SRS=100×[(Py Fast−Py Slow)/Py Slow]
Loss on drying was carried out on the samples at the start and at the end of compression testing to monitor for moisture absorption during testing. A sample size of 2.0 g±0.2 g was spread onto an aluminium tray and dried until stable at 105° C. using a Mettler HB43-S Halogen moisture balance.

[2] = KF water content of stability samples; settings: for KF water content: Duma bottles without desiccant
Procedure: The water content of each sample was measured on a Metrohm 874 Oven Sample Processor at 150° C. with 851 Titrano Coulometer using Hydranal Coulomat AG oven reagent and nitrogen purge. Weighed solid samples were introduced into a sealed sample vial. Approximately 10 mg of sample was used per titration and duplicate determinations were made. […] Data collection and analysis were performed using Tiamo software.
The water content of samples of Form 1 (batch ref. LS19-0004-3-8002), Form 3 prepared by minimally-agitated drying ([…]; batch ref. 491-PAL-18) and Form 3 prepared by continuously-agitated filter drying (Example 5B trial 5; batch ref. 00173-005) was analysed by KF at the start of the stability study (initial) and after 2, 4 and 8 weeks storage in 60 ml Duma® bottles fitted with 45 mm Duma® caps (without desiccant) at 25° C./60% RH—see Table 16;
In a separate study, samples of Form 3 (Example 5.3; batch ref. 491-PAL-18) having an initial water content by KF of 2.3% w/w were tested for water content at various time points after storage double bagged in a HDPE bottle under various conditions as shown in Table 17.

[3] = Equilibrium solubility in biorelevant media (shake flask); design: Equilibrium solubility, Mean Conc: unit not given here; settings: for equilibrium solubility in words: 0.1 M HCl and FaSSIF media; for Equilibrium solubility, Mean Conc: 37° C.
Procedure: The equilibrium solubility of samples of Form 1 (batch ref […]-0004-S-8002) and Form 3 (Example 5.4.1 (batch ref, 491PAL22; A-19-0132)) in 0.1M HCl and FaSSIF media at 37° C. was carried out using the shake flask method. Samples were taken at 4 hours and 24 hours and centrifuged for 5 minutes at 15,000 rpm. The supernatant was removed and diluted with appropriate solvent prior to HPLC analysis of the parent concentrations.

[4] = Kinetic solubility in biorelevant media; settings: for Kinetic solubility, Mean conc: 37° C.
Procedure: A small-scale kinetic solubility study was carried out at a nominal concentration of 200-400 mg/ml to ensure solid material remained at the end of the experiment for XRPD analysis. Approximately 100 mg of sample—Form 1 (batch ref L17-0004-S-8002) or Form 3 (Example 5.4.1 (batch ref. 491PAL22; A-19-0132)) was weighed into a 1 ml vial and 250 μl of 0.1 M HCl was added to the vial for the 15 and 30 minute timepoints and 500 μl of a 1:1 mixture of 0.1 M HCl and FaSSIF was added to the vial for the 60 and 180 minute timepoints, The vial was agitated and maintained at 37° C.
The study was carried out in duplicate. Each sample was centrifuged to remove suspended solids. An aliquot of the supernatant was transferred to a second vial for further centrifugation and then transferred to an LC vial, diluted with an appropriate solvent and analysed by HPLC for parent compound. The residual solids were analysed by XRPD.

[5] = 0.1M HCl, 4 Hours, Form 3 = Example 5.4.1
[6] = FaSSIF, 4 Hours, atypical HPLC data and variable results
[7] = FaSSIF, 24 Hours, atypical HPLC data and variable results
[8] = 15 mins (simulated gastric), 0.1 M HCl, Form 3 = Example 5.4.1
[9] = 30 mins (simulated gastric), 0.1 M HCl
[10] = 60 mins (simulated intestinal), 1:1 0.1 M HCl and FaSSIF
[11] = 180 mins (simulated intestinal), 1:1 0.1 M HCl and FaSSIF

C[S+]([O-])CCCCN=C=S.OC[C@H]1O[C@@H]2O[C@H]3[C@H](O)[C@@H](O)[C@@H](O[C@H]4[C@H](O)[C@@H](O)[C@@H](O[C@H]5[C@H](O)[C@@H](O)[C@@H](O[C@H]6[C@H](O)[C@@H](O)[C@@H](O[C@H]7[C@H](O)[C@@H](O)[C@@H](O[C@H]1[C@H](O)[C@H]2O)O[C@@H]7CO)O[C@@H]6CO)O[C@@H]5CO)O[C@@H]4CO)O[C@@H]3CO [Form 3]
compaction classification [1]: moderately hard brittle/ductile
sticking on punch or die wall [1]: no evidence of sticking
True Density [1]: 1.4562 g/mL
Loss on Drying - end [1]: 1.13% w/w
Yield pressure slow [1]: 109 MPa and 108.7 (±2.90) MPa
Yield pressure fast [1]: 140 MPa and 140.4 (±3.65) MPa
Loss on Drying - start [1]: 1.99% w/w
water content on extended exposure to high humidity ([2]; up to 6 months): does not increase significantly above about 5-6% w/w
equilibrium solubility in words [3]: high and comparable
Equilibrium solubility, Mean Conc [3, 5]: 733
Equilibrium solubility, Mean Conc ([3]; 0.1M HCl, 24 Hours): 3057
Equilibrium solubility, Mean Conc [3, 6]: 264
Equilibrium solubility, Mean Conc [3, 7]: 221
XRPD analysis of residual solids ([4]; 15 mins (simulated gastric)): Form 1
Kinetic solubility, Mean conc [4, 8]: approximately 300 mg/ml
Kinetic solubility, Mean conc ([4]; 15 mins (simulated gastric), 0.1 M HCl, Form 3 = Example 5.4.1, listed as 3): 298 mg/mL
XRPD analysis of residual solids ([4]; 30 mins (simulated gastric)): Form 1
Kinetic solubility, Mean conc [4, 9]: 298 mg/mL
Kinetic solubility, Mean conc [4, 10]: approximately 180 mg/ml
Kinetic solubility, Mean conc ([4]; 60 mins (simulated intestinal), 1:1 0.1 M HCl and FaSSIF, listed as 3): 171 mg/mL
Kinetic solubility, Mean conc [4, 11]: approximately 180 mg/ml
Kinetic solubility, Mean conc ([4]; 180 mins (simulated intestinal), 1:1 0.1 M HCl and FaSSIF, listed as 3): 157 mg/mL

C[S+]([O-])CCCCN=C=S.OCC1OC2OC3C(CO)OC(OC4C(CO)OC(OC5C(CO)OC(OC6C(CO)OC(OC7C(CO)OC(OC1C(O)C2O)C(O)C7O)C(O)C6O)C(O)C5O)C(O)C4O)C(O)C3O (stereo not shown) [Form 1]
compaction classification [1]: soft ductile
sticking on punch or die wall [1]: no evidence of sticking
True Density [1]: 1.4586 g/mL
Loss on Drying - end [1]: 4.25% w/w
Yield pressure slow [1]: 76 MPa and 76.3 (±1.05) MPa
Yield pressure fast [1]: 89 MPa and 88.9 (±2.32) MPa
Loss on Drying - start [1]: 4.07% w/w
KF water content ([2]; 2 weeks, 25° C./60% RH): 8.4 % w/w
KF water content ([2]; 4 weeks, 25° C./60% RH): 6.5 % w/w
KF water content ([2]; 8 weeks, 25° C./60% RH): 11.1 % w/w
KF water content ([2]; Initial, 25° C./60% RH study): 8.6 % w/w
equilibrium solubility in words [3]: high and comparable
Equilibrium solubility, Mean Conc [3, 5]: 632
Equilibrium solubility, Mean Conc ([3]; 0.1M HCl, 24 Hours): 2605
Equilibrium solubility, Mean Conc [3, 6]: 271
Equilibrium solubility, Mean Conc [3, 7]: 247
XRPD analysis of residual solids ([4]; 15 mins (simulated gastric)): Form 1
Kinetic solubility, Mean conc [4, 8]: approximately 300 mg/ml
Kinetic solubility, Mean conc ([4]; 15 mins (simulated gastric), 0.1 M HCl, Form 3 = Example 5.4.1, listed as 1): 319 mg/mL
XRPD analysis of residual solids ([4]; 30 mins (simulated gastric)): Form 1
Kinetic solubility, Mean conc [4, 9]: 318 mg/mL
XRPD analysis of residual solids ([4]; 60 mins (simulated intestinal)): Form 1
Kinetic solubility, Mean conc [4, 10]: approximately 180 mg/ml
Kinetic solubility, Mean conc ([4]; 60 mins (simulated intestinal), 1:1 0.1 M HCl and FaSSIF, listed as 1): 191 mg/mL
XRPD analysis of residual solids ([4]; 180 mins (simulated intestinal)): Form 1
Kinetic solubility, Mean conc [4, 11]: approximately 180 mg/ml
Kinetic solubility, Mean conc ([4]; 180 mins (simulated intestinal), 1:1 0.1 M HCl and FaSSIF, listed as 1): 180 mg/mL
